Tests used:
Format in all cases: functional, cell-based
PBMC [1] = assay: Antiinflammatory activity in human PBMC assessed as inhibition of LPS-induced IL-8 expression pretreated 1 hr before LPS challenge followed by incubated for 16 hrs by flow cytometry
PBMC [2] = assay: Antiinflammatory activity in human PBMC assessed as inhibition of LPS-induced IL-1beta expression pretreated 1 hr before LPS challenge followed by incubated for 16 hrs by flow cytometry
PBMC [3] = assay: Antiinflammatory activity in human PBMC assessed as inhibition of LPS-induced TNFalpha expression pretreated 1 hr before LPS challenge followed by incubated for 16 hrs by flow cytometry

| SMILES | IC50 (PBMC [1]) | IC50 (PBMC [2]) | IC50 (PBMC [3]) |
| --- | --- | --- | --- |
| C=C1C[C@@]23CC[C@H]4[C@@](C)(CCC[C@@]4(C)C(=O)O)[C@@H]2CC[C@@H]1C3 [KAURENOIC ACID] | 7700 nM | 10 nM | 2 nM |
| C[C@@]12CCC[C@@](C)(C(=O)O)[C@H]1CC(=O)[C@@]13C[C@@H](CC[C@H]12)[C@H](O)C3 | > 10000 nM | 4 nM | 20 nM |
| C[C@@]12CCC[C@@](C)(C(=O)O)[C@H]1CC[C@]13C=C(CO)[C@H](CC[C@H]12)C3 | > 10000 nM | 800 nM | 10 nM |
| C[C@@]12CCC[C@@](C)(C(=O)O)[C@H]1CC[C@@]13C[C@@H](CC[C@@H]21)[C@]1(CO)O[C@H]31 | > 10000 nM | 100 nM | 60 nM |
| C[C@@H]1C[C@H]2[C@@H]3CCC4=CC(=O)C=C[C@]4(C)[C@@]3(F)[C@@H](O)C[C@]2(C)[C@@]1(O)C(=O)CO [DEXAMETHASONE] | 9 nM | 8 nM | 2 nM |
| C=C[C@]1(C)C=C2C(=O)C[C@H]3[C@@](C)(CCC[C@@]3(C)C(=O)O)[C@@H]2CC1 | > 10000 nM | 30 nM | 7 nM |
| C[C@@]12CCC[C@@](C)(C(=O)O)[C@H]1CC(=O)[C@]13C[C@@H](CO)[C@H](CC[C@H]12)C3 | > 10000 nM | 100 nM | 100 nM |
| C[C@@]12CCC[C@@](C)(C(=O)O)[C@H]1CC[C@]13C=C(C(=O)O)[C@H](CC[C@H]12)C3 | 3 nM | 7500 nM | 2100 nM |
| C[C@]12CCC3=C(CC[C@@H]4[C@](C)(C(=O)O)CCC[C@@]34C)[C@H]1OC[C@@H]2O | 1 nM | > 10000 nM | > 10000 nM |
| COC(=O)[C@]1(C)CCC[C@@]2(C)[C@@H]3CC[C@@H]4C[C@]3(C=C4C=O)CC[C@@H]21 | 6 nM | 5 nM | 400 nM |
| Cc1cc(O)c2c(c1O)C(=O)C[C@@H]1[C@](C)(C(=O)O)CCC[C@@]21C | > 10000 nM | > 10000 nM | 8 nM |
| C[C@@]12CCC[C@@](C)(C(=O)O)[C@H]1CC(=O)[C@]13CC(=O)[C@H](CC[C@H]12)C3 | > 10000 nM | 1 nM | 2 nM |

Reference: ChEMBL document CHEMBL3351835, “Anti-inflammatory diterpenoids from the root bark of Acanthopanax gracilistylus” (J Nat Prod, 2014)
